Assay results published in patent publication US6395775B1, “Combating pest insects” (priority 1995, dated 2002).
Entries after “also recorded” stand apart in the source; their conditions may differ.

Key:
codling moth = details: cited from earlier work; for previous classification of behavioural role: Hathaway et al. 1974, Witzgall et al. 1996a, El-Sayed et al. 1998
[1] = tested on: codling moth, Cydia pomonella; assay: Confusion test in 100 m^2 test areas in a fruit orchard; assay type: in vivo; details: for confusing effect (males trapped compared with non-treated control square): four dispensing means in the corners, pheromone trap in the center
Method: In another test a confusion test was carried out in 100 m^2 quadratic test areas in a fruit orchard. […] In the respective center of each square, a pheromone trap loaded with the sex pheromone, E8, E10-dodecadien-1-ol of the codling moth, was placed. The confusing effect was calculated as the number of males trapped in the trap compared with the number trapped in a trap in a non-treated control square, i.e. without any behavior antagonist in the respective corner. […] The sex pheromone of the codling moth, the alcohol, is as already mentioned, in commercial use. The inhibiting results are, however, not always satisfying, (Cardé & Minks, 1995, “Control of moth pests by mating disruption. Successes and constraints”, Ann. Rev. Entomol. 49:559-585) in particular not in fruit orchards having high trees and a high population density. […] Probably, the concentration of pheromone from located dispensing means so low there, that the attracting power of the pheromone dominates its confusing effect. Males circulating in the tree tops may also be caught in lower placed traps which indicates a lacking confusing effect. […] Several of the males caught in pheromone traps in such treated squares can be seen flying some meters above the ground and straight into the trap. They never arrived from the top of the trees.

C. pomonella males = assay: Wind tunnel experiments, male attraction; assay type: in vivo, Cydia pomonella; details: codlemone 10 pg/min; E8,Z10-dodecadien-1-ol added at 3% by weight or E8,E10-dodecadienyl acetate at 1% by weight; n=60
Text: Tests were done in a wind tunnel with a flight section of 63 by 90 by 200 cm. Dilutions of synthetic compounds in redistilled ethanol were released from an ultrasound evaporator (Gödde et al. 1999). A motor-driven syringe delivered pheromone solutions in ethanol, through micro-tubing, to a glass capillary tube with a 40 μm tip. A piezo-ceramic disc vibrates the tip of the capillary tube at 100-140 kHz, and the pheromone solution evaporates within a few cm of the tip of the capillary.
The main compound codlemone, E8,E10-dodecadien-1-ol, was applied at a rate of 10 pg/min, E8,Z10-dodecadien-1-ol was added at 3% by weight (FIG. 2), E8,E10-dodecadienyl acetate was added at 1% by weight (FIG. 3).
Test sessions started 1 h after lights off and lasted 3 to 4 h. Two-day-old males were placed individually in glass tubes (15 by 2.5 cm) stoppered with gauze, 15 min prior to testing. Males were released individually and were allowed 2 min to respond. Treatments were tested on 4 days with 15 males/day (n=60).
The sequence of male behaviours elicited by perception of sex pheromone includes activation from rest and taking flight, upwind-oriented flight towards the pheromone source, landing at the pheromone source, and display of courtship behaviors close to the source (walking while wingfanning) (FIGS. 2 and 3). These behaviors are followed by mating, if the pheromone source is a calling female.

[2] = tested on: codling moth, Cydia pomonella; assay: Pheromone trap catch test; assay type: in vivo; details: for behavioural effect on codling moth in pheromone traps: isomer of the acetate combined with E8,E10-dodecadien-1-ol in traps
Text: Pheromone traps were loaded with the pheromone, E8,E10-dodecadien-1-ol of the codling moth, (FIG. 1A). In other traps the alcohol was combined with the corresponding acetate (FIG. 1B). At a blend of 20% of the acetate the catch decreased to ⅛ (dark column).

SMILES	confusing effect (males trapped compared with non-treated control square) [1]	previous classification of behavioural role (codling moth)	male attraction and close range behaviours at the pheromone source, compared to E8,E10-dodecadien-1-ol alone (C. pomonella males)	behavioural effect on codling moth in pheromone traps [2]	further results
C/C=C/C=C/CCCCCCCO [E8,E10-dodecadien-1-ol]	strong confusing effect				attraction of the codling moth by geometric isomers of the alcohol (codling moth; Roelofs et al (1972)): very attractive; observation of males in the tree tops of treated squares ([1]; fruit orchards having high trees and a high population density): males are attracted to the tree tops
C/C=C/C=C/CCCCCCCOC(C)=O [E8,E10-dodecadien-1-yl acetate]	strong confusing effect	pheromone antagonists	enhances male attraction and close range behaviours; also recorded: acts as an antagonist when present in high amounts, and as a synergist when present in lower amounts	behaviour antagonist	catch in pheromone traps, decrease relative to E8,E10-dodecadien-1-ol alone ([2]; alcohol combined with the acetate, blend of 20% of the acetate): ⅛
C/C=C\C=C\CCCCCCCO [E8,Z10-dodecadien-1-ol]		pheromone antagonists	enhances male attraction and close range behaviours		
CC=CC=CCCCCCCCOC(C)=O [EZ]				behaviour antagonists	
C/C=C/C=C\CCCCCCCOC(C)=O [ZE]				behaviour antagonists	
CC=CC=CCCCCCCCOC(C)=O [ZZ]					behavioural effect on codling moth in pheromone traps ([2]; listed as zz-isomer): most powerful of the four isomers
